Experiments:
Aβ [1] = system: Aβ; set-up: method as in PMID 20363853; details: preclinically ref 13; cited from earlier work
SH-SY5Y APPswe cells [2] = assay: Aβ40 secretion from SH-SY5Y APPswe cells, ELISA of culture medium; format: cell-based, human; details: for IC50: Homo sapiens, 24 h
Procedure: (§1) The human neuroblastoma cell line SH-SY5Y was purchased from European Collection of Cell Cultures (ECACC). Cells were grown in DMEM/Ham's F-12 (PAA), supplemented with 1% non-essential amino acids (PAA) and 10% Fetal Bovine Serum (PAA). Cells were maintained at 37°C in a humidified atmosphere containing 5% CO2.
(§2) SH-SY5Y cells were stably transfected with plasmids carrying human APPwt or APPswe gene. APP gene was purchased from Geneservice Ltd (clone sequence BC065529; clone MGC75167) and the APPswe mutation was generated using a QuikChange® Site-Directed Mutagenesis Kit (Stratagene). APPwt and APPswe genes were cloned into a mammalian expression vector pcDNA3.1 and the expression was under the control of CMV promotor. The cells were plated at the density of 6.25 × 10^4 cells/cm^2 in 6-well culture dishes (Sarstedt) and each well was transfected with 4 μg plasmid DNA. Lipofectamine™2000 (InVitrogen) was used as a transfection reagent according to manufacturer's instructions. The transfected cells were selected with 400 μg/ml G418 (PAA).
(§3) Cells were plated at a density of 6.25 × 10^4 cells/cm^2 in 96-well cell culture plates (TRP) for Aβ measurements with ELISA or in 6-well culture dishes (Sarstedt) for Western blot. The day after the plating of the cells, the cultures were treated with various concentrations of γ-secretase inhibitor LY450139 or the BACE inhibitor for 24 hours. Stock solutions of inhibitors were prepared in dimethyl-sulfoxide (DMSO). All cultures including the control cells received equal amounts of DMSO, the final concentration being 0.1%. All the results were from two to three separate experiments and the data presented as means ± SEM.
(§4) The secreted Aβ40 and Aβ42 peptides in cell culture media were measured using human amyloid β40 or β42 ELISA kits from Millipore. The absorbance was measured at 450 nm by Microplate reader (Molecular Devices). Data from inhibitor-treated cell cultures was expressed as a percent of untreated controls and the inhibition curves were analysed by non-linear regression using Graph Pad Prism.

SH-SY5Y APPwt cells [3] = assay: Aβ40 secretion from SH-SY5Y APPwt cells, ELISA of culture medium; format: cell-based, human; details: for IC50: Homo sapiens, 24 h
Procedure: as §1, §2, §3, §4

AD patients = system: AD patients; set-up: method as in earlier work; details: phase III, AD patients ref 14; cited from earlier work
SH-SY5Y APPwt cells [4] = assay: Western blot (6E10 antibody) of APP substrate in cell lysates; format: cell-based, human; details: 3, 30 or 300 nM LY450139, 24 h
Procedure: as §3
SH-SY5Y cells were lysed in buffer containing 50 mM Tris-HCl pH 8.0, 150 mM NaCl, 1% Triton X-100, 1 mM EDTA, 1 mM Na3VO4 and 1 complete protease inhibitor cocktail tablet (Roche Diagnostics)/10 ml buffer. The cells were incubated with lysis buffer for 10 minutes on ice before scraping the cells from the dishes. Cell lysates were centrifuged at 14 000 rpm for 15 minutes. The protein content in the supernatants was measured using Pierce® 660 nm Protein Assay kit. Samples, containing 20 μg protein, were resolved in 7% NuPAGE®Tris-Acetate gels (InVitrogen) using Tris-Acetate SDS running buffer (InVitrogen). […] Average density of the bands was measured in ChemiDoc™XRS (Bio-Rad) by using Quantity One software.

SH-SY5Y APPwt cells [5] = assay: Aβ42 secretion from SH-SY5Y APPwt cells, ELISA of culture medium; format: cell-based, human
Procedure: as §1
as §2, with “The transfected cells were selected with 400 μg/ml G418 (PAA).” left out
as §4

Aβ [6] = system: Aβ; set-up: method as in PMID 19360898; details: healthy volunteers ref 3; cited from earlier work
SH-SY5Y APPswe cells [7] = assay: Aβ42 secretion from SH-SY5Y APPswe cells, ELISA of culture medium; format: cell-based, human; details: 3 nM LY450139, SH-SY5Y APPswe
Procedure: as §1
as §2, with “The transfected cells were selected with 400 μg/ml G418 (PAA).” left out
as §4

## CCC[C@H](N[C@H]1CCc2cc(F)cc(F)c2C1)C(=O)Nc1cn(C(C)(C)CNCC(C)(C)C)cn1 [PF-3084014]
Aβ [1]
  Aβ rebound/rise attribute: lack this attribute

## CCc1cn2c3c(cc(C(=O)N[C@@H](Cc4ccccc4)[C@H](O)CNC4CC4)cc13)N(C)S(=O)(=O)CC2 [BACE inhibitor, N-[(1S,2R)-1-Benzyl-3-(cyclopropylamino)-2-hydroxypropyl]-7-ethyl-1-methyl-3,4-dihydro-1H-[1,2, 5]thiadiazepino[3,4,5-hi-]indole-9-carboxamide 2,2-Dioxide]
SH-SY5Y APPswe cells [2]; BACE inhibitor alone, SH-SY5Y APPswe
  IC50: 0.018 µM
SH-SY5Y APPwt cells [3]; BACE inhibitor alone, SH-SY5Y APPwt
  IC50: 0.007 µM
SH-SY5Y APPwt cells [3]; SH-SY5Y APPwt
  concentration required to abolish the LY450139-evoked Aβ40 rise completely: 30 nM

## CC(C)[C@H](O)C(=O)N[C@@H](C)C(=O)N[C@@H]1C(=O)N(C)CCc2ccccc21 [LY450139, (N)-((S)-2-hydroxy-3-methyl-butyryl)-1-(L-alaninyl)-(S)-amino-3-methyl-2,3,4,5-tetrahydro-1H-3-benzazepin-2-one dihydrate]
SH-SY5Y APPswe cells [2]; 3 nM LY450139, SH-SY5Y APPswe
  effect on Aβ40 secretion per se: does not affect Aβ40-secretion per se
SH-SY5Y APPswe cells [2]; 30 nM LY450139, SH-SY5Y APPswe
  remaining Aβ40 secretion: 20-30%
SH-SY5Y APPswe cells [2]; SH-SY5Y APPswe, monophasic
  IC50: 0.018 µM
SH-SY5Y APPswe cells [2]; after 300 nM LY450139 for first 24 h, SH-SY5Y APPswe
  Aβ40 levels with 3 nM LY450139 in second 24 h: did not lead to increased Aβ40 levels
AD patients
  cognitive symptoms versus placebo: fared worse than placebo-treated controls
SH-SY5Y APPwt cells [4]
  substrate (APP bands, 6E10) level: accumulation of substrate
SH-SY5Y APPwt cells [5]; 3 nM LY450139, SH-SY5Y APPwt
  secreted Aβ42 levels increase compared to controls: 70%
SH-SY5Y APPwt cells [5]; 300 nM LY450139 24 h, then fresh medium 24 h, SH-SY5Y APPwt
  Aβ42 secretion after washout: returned to control levels
Aβ [6]
  effect on Aβ levels in the cerebrospinal fluid: lower Aβ levels
SH-SY5Y APPwt cells [3]; 3 nM LY450139, 24 h, SH-SY5Y APPwt
  Aβ40 levels increase above baseline: 60%
SH-SY5Y APPwt cells [3]; 30 nM LY450139 per se, SH-SY5Y APPwt
  effect on basal Aβ40 levels: does not affect basal Aβ40 levels
SH-SY5Y APPwt cells [3]; 300 nM LY450139, 24 h, SH-SY5Y APPwt
  reduction of Aβ40 secretion compared to control: 80%
SH-SY5Y APPwt cells [3]; APPwt vs APPswe IC50
  fold less potent at inhibiting Aβ40 secretion from APPwt cells compared to APPswe cells: ~ 5 fold
SH-SY5Y APPwt cells [3]; SH-SY5Y APPwt, inhibitory phase at > 30 nM, approximate
  IC50: ~0.09 µM
SH-SY5Y APPwt cells [3]; LY450139 pre-treated vs control cells, data not shown
  Aβ40 production 2 - 6 hours after washout: did not differ
SH-SY5Y APPwt cells [3]; after 300 nM LY450139 for first 24 h, compared to cells given fresh medium in second 24 h, SH-SY5Y APPwt
  Aβ40 levels increase with 3 nM LY450139 in second 24 h: 60%
SH-SY5Y APPwt cells [3]; pre-treated 300 nM LY450139 24 h, then fresh medium 24 h, SH-SY5Y APPwt
  Aβ40 secretion during 24 h after washout: did not differ from control cells
SH-SY5Y APPswe cells [7]
  effect on secreted Aβ42 levels: not affected

— paper PMC3217850, “BACE-1 inhibition prevents the γ-secretase inhibitor evoked Aβ rise in human neuroblastoma SH-SY5Y cells” (Journal of Biomedical Science, 2011)
